Source: US20050208496A1, “Methods of testing for bronchial asthma or chronic obstructive pulmonary disease” (Genox Research, Inc., priority 2002, published 2005)

Tested on: mouse counterpart genes
Assay: Mouse GeneChip (MG-U74A to MG-U74C) analysis of lung and trachea of the OVA antigen-exposed bronchial hypersensitivity model, S-Sal group versus S-OVA group
Format: in vivo
[1] = S-Sal group vs S-OVA group, chip B, 1st
[2] = S-Sal group vs S-OVA group, chip B, 2nd
[3] = S-Sal group vs S-OVA group, chip B, 3rd
[4] = S-Sal group vs S-OVA group, chip C, 1st
[5] = S-Sal group vs S-OVA group, chip C, 2nd
[6] = S-Sal group vs S-OVA group, chip C, 3rd
[7] = S-Sal vs S-OVA group, 1st, P/A: A
[8] = S-Sal vs S-OVA group, 1st, P/A: M
[9] = S-Sal vs S-OVA group, 1st, P/A: P
[10] = S-Sal vs S-OVA group, 2nd, P/A: A
[11] = S-Sal vs S-OVA group, 2nd, P/A: P

## ovalbumin [OVA antigen, ovalbumin antigen used for sensitization and inhalation to induce bronchial hypersensitivity in mice]
[1]
  Fold Change, SAM domain and HD domain, 1 (mouse Probe ID 109915_at): 1.2
  Fold Change, Similar to dihydropyrimidine dehydrogenase, clone MGC: 37940 (mouse Probe ID 111949_at): 0.588
  Fold Change, Similar to guanylate nucleotide binding protein 3, clone MGC: 6385 (mouse Probe ID 107939_at): 1.9
  Fold Change, procollagen lysine, 2-oxoglutarate 5-dioxygenase 2 (mouse Probe ID 114376_at): 0.833
  Fold Change, thioredoxin reductase 1 (mouse Probe ID 162642_at): 0.323
[2]
  Fold Change, ESTs AI844322 (mouse Probe ID 110469_at): 0.833
  Fold Change, RIKEN cDNA 2610017M01 gene (mouse Probe ID 105606_at): 0.5
  Fold Change, RIKEN cDNA 2610017M01 gene (mouse Probe ID 163053_at): 0.833
  Fold Change, SAM domain and HD domain, 1 (mouse Probe ID 109915_at): 0.303
  Fold Change, Similar to dihydropyrimidine dehydrogenase, clone MGC: 37940 (mouse Probe ID 111949_at): 0.588
  Fold Change, Similar to guanylate nucleotide binding protein 3, clone MGC: 6385 (mouse Probe ID 107939_at): 1.2
  Fold Change, growth arrest and DNA-damage-inducible 45 gamma (mouse Probe ID 109336_at): 1.7
  Fold Change, procollagen lysine, 2-oxoglutarate 5-dioxygenase 2 (mouse Probe ID 114376_at): 1.1
  Fold Change, thioredoxin reductase 1 (mouse Probe ID 162642_at): 2.8
[3]
  Fold Change, RIKEN cDNA 2610017M01 gene (mouse Probe ID 105606_at): 0.667
  Fold Change, RIKEN cDNA 2610017M01 gene (mouse Probe ID 163053_at): 1.2
  Fold Change, SAM domain and HD domain, 1 (mouse Probe ID 109915_at): 1.1
  Fold Change, Similar to dihydropyrimidine dehydrogenase, clone MGC: 37940 (mouse Probe ID 111949_at): 0.833
  Fold Change, Similar to guanylate nucleotide binding protein 3, clone MGC: 6385 (mouse Probe ID 107939_at): 0.833
  Fold Change, thioredoxin reductase 1 (mouse Probe ID 162642_at): 0.588
[4]
  Fold Change, RIKEN cDNA 6330404C01 gene (mouse Probe ID 166590_at): 2
  Fold Change, expressed sequence AV022454 (mouse Probe ID 165678_i_at): 1.3
  Fold Change, interferon-induced protein with tetratricopeptide repeats 1 (mouse Probe ID 168299_f_at): 1.3
  Fold Change, small inducible cytokine subfamily B (Cys-X-Cys), member 11 (mouse Probe ID 140659_at): 3.8
[5]
  Fold Change, RIKEN cDNA 6330404C01 gene (mouse Probe ID 166590_at): 1
  Fold Change, expressed sequence AV022454 (mouse Probe ID 165678_i_at): 1.3
  Fold Change, hydroxysteroid (17-beta) dehydrogenase 2 (mouse Probe ID 166141_i_at): 0.526
  Fold Change, interferon-induced protein with tetratricopeptide repeats 1 (mouse Probe ID 168299_f_at): 1.1
  Fold Change, sialyltransferase 1 (beta-galactoside alpha-2,6-sialyltransferase) (mouse Probe ID 167200_r_at): 1.6
  Fold Change, small inducible cytokine subfamily B (Cys-X-Cys), member 11 (mouse Probe ID 140659_at): 2
[6]
  Fold Change, expressed sequence AV022454 (mouse Probe ID 165678_i_at): 2.2
  Fold Change, hydroxysteroid (17-beta) dehydrogenase 2 (mouse Probe ID 166141_i_at): 1.9
  Fold Change, hydroxysteroid (17-beta) dehydrogenase 2 (mouse Probe ID 169670_at): 0.385
  Fold Change, interferon-induced protein with tetratricopeptide repeats 1 (mouse Probe ID 168299_f_at): 1.2
  Fold Change, small inducible cytokine subfamily B (Cys-X-Cys), member 11 (mouse Probe ID 140659_at): 1
[7]
  Fold Change, DNA-damage inducible transcript 3 (mouse Probe ID 101429_at): 0.37
  Fold Change, RAS guanyl releasing protein 1 (mouse Probe ID 98307_at): 0.5
  Fold Change, RAS guanyl releasing protein 1 (mouse Probe ID 167498_i_at): 0.833
  Fold Change, RIKEN cDNA A2301D9K23 gene (mouse Probe ID 163453_at): 1.6
  Fold Change, RIKEN cDNA A2301D9K23 gene (mouse Probe ID 166475_r_at): 1.2
  Fold Change, acid phosphatase 5, tartrate resistant (mouse Probe ID 162543_r_at): 4.3
  Fold Change, cathepsin C (mouse Probe ID 101020_at): 1.8
  Fold Change, cathepsin C (mouse Probe ID 161251_f_at): 0.667
  Fold Change, cytokine inducible SH2-containing protein 1 (mouse Probe ID 92832_at): 1.6
  Fold Change, dual specificity phosphatase 14 (mouse Probe ID 165144_r_at): 0.5
  Fold Change, dual specificity phosphatase 14 (mouse Probe ID 171285_at): 1.7
  Fold Change, fetuin beta (mouse Probe ID 108524_at): 1.2
  Fold Change, keratin complex 1, acidic, gene 16 (mouse Probe ID 103589_at): 1.8
  Fold Change, keratin complex 1, acidic, gene 16 (mouse Probe ID 164428_i_at): 1.5
  Fold Change, nuclear factor, interleukin 3, regulated (mouse Probe ID 164758_i_at): 1.4
  Fold Change, serine (or cysteine) proteinase inhibitor, clade B (ovalbumin), member 2 (mouse Probe ID 137166_r_at): 0.667
  Fold Change, transmembrane 4 superfamily member 8 (mouse Probe ID 97912_at): 3.6
  Fold Change, ubiquitin D (mouse Probe ID 169362_f_at): 1.2
[8]
  Fold Change, neutrophil cytosolic factor 2 (mouse Probe ID 102326_at): 2
  Fold Change, ubiquitin fusion degradation 1 like (mouse Probe ID 93303_at): 0.567
[9]
  Fold Change, DEAD (aspartate-glutamate-alanine-aspartate) box polypeptide 5 (mouse Probe ID 93493_at): 1
  Fold Change, DEAD (aspartate-glutamate-alanine-aspartate) box polypeptide 5 (mouse Probe ID 113899_at): 0.909
  Fold Change, RIKEN cDNA 4933419D20 gene (mouse Probe ID 97442_at): 1.2
  Fold Change, RIKEN cDNA 4933419D20 gene (mouse Probe ID 112237_at): 1.1
  Fold Change, cathepsin C (mouse Probe ID 101019_at): 1.2
  Fold Change, dual specificity phosphatase 14 (mouse Probe ID 162702_at): 1.2
  Fold Change, expressed sequence AI463430 (mouse Probe ID 112883_at): 1
  Fold Change, fatty acid binding protein 4, adipocyte (mouse Probe ID 100567_at): 0.556
  Fold Change, integrin-associated protein (mouse Probe ID 103611_at): 1
  Fold Change, ribosomal protein S16 (mouse Probe ID 97647_at): 1
  Fold Change, ribosomal protein S16 (mouse Probe ID 169860_r_at): 33
  Fold Change, serine (or cysteine) proteinase inhibitor, clade B (ovalbumin), member 2 (mouse Probe ID 92978_s_at): 2.1
  Fold Change, serine (or cysteine) proteinase inhibitor, clade B (ovalbumin), member 6 (mouse Probe ID 96060_at): 1.1
  Fold Change, signal transducer and activator of transcription 1 (mouse Probe ID 101465_at): 1.8
  Fold Change, signal transducer and activator of transcription 1 (mouse Probe ID 114635_at): 2
  Fold Change, ubiquitin D (mouse Probe ID 168938_r_at): 1.4
[10]
  Fold Change, DNA-damage inducible transcript 3 (mouse Probe ID 101429_at): 0.526
  Fold Change, RAS guanyl releasing protein 1 (mouse Probe ID 167498_i_at): 1.6
  Fold Change, RIKEN cDNA A2301D9K23 gene (mouse Probe ID 163453_at): 1.4
  Fold Change, RIKEN cDNA A2301D9K23 gene (mouse Probe ID 166475_r_at): 0.556
  Fold Change, acid phosphatase 5, tartrate resistant (mouse Probe ID 162543_r_at): 6.8
  Fold Change, cathepsin C (mouse Probe ID 101020_at): 0.625
  Fold Change, cathepsin C (mouse Probe ID 161251_f_at): 1
  Fold Change, cytokine inducible SH2-containing protein 1 (mouse Probe ID 92832_at): 1.9
  Fold Change, dual specificity phosphatase 14 (mouse Probe ID 165144_r_at): 0.833
  Fold Change, fetuin beta (mouse Probe ID 108524_at): 0.278
  Fold Change, keratin complex 1, acidic, gene 16 (mouse Probe ID 103589_at): 1.3
  Fold Change, keratin complex 1, acidic, gene 16 (mouse Probe ID 164428_i_at): 1.6
  Fold Change, ribosomal protein S16 (mouse Probe ID 169860_r_at): 1.4
  Fold Change, serine (or cysteine) proteinase inhibitor, clade B (ovalbumin), member 2 (mouse Probe ID 137166_r_at): 0.667
  Fold Change, transmembrane 4 superfamily member 8 (mouse Probe ID 97912_at): 1
  Fold Change, ubiquitin D (mouse Probe ID 92715_at): 0.455
  Fold Change, ubiquitin D (mouse Probe ID 168938_r_at): 0.667
  Fold Change, ubiquitin D (mouse Probe ID 169362_f_at): 1
  Fold Change, ubiquitin fusion degradation 1 like (mouse Probe ID 93303_at): 0.303
S-Sal vs S-OVA group, 2nd, P/A: M
  Fold Change, RAS guanyl releasing protein 1 (mouse Probe ID 98307_at): 1.7
[11]
  Fold Change, DEAD (aspartate-glutamate-alanine-aspartate) box polypeptide 5 (mouse Probe ID 93493_at): 1
  Fold Change, DEAD (aspartate-glutamate-alanine-aspartate) box polypeptide 5 (mouse Probe ID 113899_at): 0.714
  Fold Change, RIKEN cDNA 4933419D20 gene (mouse Probe ID 97442_at): 1
  Fold Change, RIKEN cDNA 4933419D20 gene (mouse Probe ID 112237_at): 1
  Fold Change, acid phosphatase 5, tartrate resistant (mouse Probe ID 98859_at): 1.4
